The text below walks through data of US20250230193A1, “CYCLIC COMPOUND HAVING SELECTIVE KRAS INHIBITORY EFFECT ON HRAS AND NRAS” (CHUGAI SEIYAKU KABUSHIKI KAISHA, priority 2022, published 2025).

SMILES strings stand for the structures. Where a SMILES comes first, the peptide text is derived from it. Bridges are numbered along the chain shown (N, C = ends). [ ]: non-standard residue; d: D form. The star is where a group is joined. hPhe(3-Cl-4-CF3) = N[C@@H](CCc1ccc(C(F)(F)F)c(Cl)c1)C(=O)O; NPrPhe(4-CF3) = CCCN[C@@H](Cc1ccc(C(F)(F)F)cc1)C(=O)O; NPrPhe(4-Me) = CCCN[C@@H](Cc1ccc(C)cc1)C(=O)O; NMeGly(cPent) = CN[C@H](C(=O)O)C1CCCC1; Pro(4,4-Me2) = CC1(C)CN[C@H](C(=O)O)C1; NMeD = CN[C@@H](CC(=O)O)C(=O)O; NMeL = CN[C@@H](CC(C)C)C(=O)O; NEtAla = CCN[C@@H](C)C(=O)O; Morpholide = C1CN(*)CCO1; NMeA = CN[C@@H](C)C(=O)O; Ac5c = NC1(C(=O)O)CCCC1; Aze = O=C(O)[C@@H]1CCN1; NEtG = CCNCC(=O)O; Sar = CNCC(=O)O

Assay [1] has as its target GDP-bound NRAS wild-type protein (Homo sapiens, UniProt P01111). Put plainly: Binding to NRAS by surface plasmon resonance (SPR), Single Cycle Kinetics. (In general: Surface plasmon resonance follows binding to a sensor surface in real time, without labels.)
Assay [2] has as its target GDP-bound HRAS wild-type protein (Homo sapiens, UniProt P01112). Put plainly: Binding to HRAS by surface plasmon resonance (SPR), Single Cycle Kinetics.

Chain of GDP-bound NRAS wild-type protein (P01111 whole entry): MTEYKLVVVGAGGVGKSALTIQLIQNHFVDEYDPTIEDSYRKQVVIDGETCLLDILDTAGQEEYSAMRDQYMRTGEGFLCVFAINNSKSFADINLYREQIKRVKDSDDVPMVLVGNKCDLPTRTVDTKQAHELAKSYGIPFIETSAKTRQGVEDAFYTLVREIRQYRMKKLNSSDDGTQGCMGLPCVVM
Chain of GDP-bound HRAS wild-type protein (P01112 whole entry): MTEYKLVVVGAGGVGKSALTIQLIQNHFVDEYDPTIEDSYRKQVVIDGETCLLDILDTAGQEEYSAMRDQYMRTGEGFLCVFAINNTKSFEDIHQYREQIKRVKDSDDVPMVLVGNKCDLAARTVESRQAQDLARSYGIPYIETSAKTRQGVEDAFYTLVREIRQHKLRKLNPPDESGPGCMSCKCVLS

For `CCC[C@H]1C(=O)N[C@@H]([C@@H](C)CC)C(=O)N(C)CC(=O)N(C)[C@H]2C/C=C\CCN(C2=O)[C@@H](Cc2ccc(C(F)(F)F)cc2)C(=O)N(C)CC(=O)N[C@@H](CCc2ccc(Cl)c(C(F)(F)F)c2)C(=O)N2C[C@H](OCC)C[C@H]2C(=O)NC2(CC(C)(C)C2)C(=O)N(C)[C@@H](C2CCCC2)C(=O)N(C)[C@H](C(=O)N(C)C)CC(=O)N1C` [PP2784], the “NRAS/KRAS (ratio of KD value with respect to GDP-bound NRAS wild-type protein to KD value with respect to KRAS)” value in assay [1] (class symbols) was “A (a compound having 10 or more and less than 20 is denoted as A)”. Also, the “HRAS/KRAS (ratio of KD value with respect to GDP-bound HRAS wild-type protein to KD value with respect to KRAS)” value in assay [2] (class symbols) was “A (a compound having 10 or more and less than 20 is denoted as A)”.

As for `CCO[C@@H]1C[C@H]2C(=O)NC3(CCC3)C(=O)N(C)[C@@H](C3CCCC3)C(=O)N(C)[C@H](C(=O)N(C)CC)CC(=O)N(C)[C@@H](CC3CCC3)C(=O)N[C@@H]([C@@H](C)CC)C(=O)N(C)CC(=O)N(C)[C@H]3C/C=C\CCN(C3=O)[C@@H](Cc3ccc(C(F)(F)F)cc3)C(=O)N(C)CC(=O)N[C@@H](CCc3ccc(C(F)(F)F)c(OC)c3)C(=O)N2C1` [PP2825], the “NRAS/KRAS (ratio of KD value with respect to GDP-bound NRAS wild-type protein to KD value with respect to KRAS)” value in assay [1] (class symbols) is “A (a compound having 10 or more and less than 20 is denoted as A)”. In addition, the “HRAS/KRAS (ratio of KD value with respect to GDP-bound HRAS wild-type protein to KD value with respect to KRAS)” value in assay [2] (class symbols) was “B (a compound having 3 or more and less than 10 is denoted as B)”.

For the compound `CCCN1C(=O)CN(C)C(=O)CN(CC)C(=O)[C@H]([C@@H](C)CC)NC(=O)[C@H](CC(C)C)N(C)C(=O)C[C@@H](C(=O)N2CCOCC2)N(C)C(=O)[C@H](C2CCCC2)N(C)C(=O)C2(CCCC2)NC(=O)[C@@H]2CC(C)(C)CN2C(=O)[C@H](CCc2ccc(C(F)(F)F)c(Cl)c2)NC(=O)CN(C)C(=O)[C@@H]1Cc1ccc(C(F)(F)F)cc1` [PP0450] ([NMeL]I[NEtG][Sar][NPrPhe(4-CF3)][Sar][hPhe(3-Cl-4-CF3)][Pro(4,4-Me2)][Ac5c][NMeGly(cPent)][NMeD]-Morpholide; lactam N-11), in assay [1] (SPR), the “NRAS/KRAS (ratio of KD value with respect to GDP-bound NRAS wild-type protein to KD value with respect to KRAS)” value was “B (a compound having 3 or more and less than 10 is denoted as B)”. Further, the “HRAS/KRAS (ratio of KD value with respect to GDP-bound HRAS wild-type protein to KD value with respect to KRAS)” value in assay [2] (SPR) is “C (A compound having a KD ratio of 0.1 or more and less than 3 is denoted as C)”.

On to `CCCN1C(=O)[C@@H]2CCN2C(=O)[C@H](C)N(CC)C(=O)[C@H]([C@@H](C)CC)NC(=O)[C@H](CC(C)C)N(C)C(=O)C[C@@H](C(=O)N2CCOCC2)N(C)C(=O)[C@H](C2CCCC2)N(C)C(=O)C2(CCCC2)NC(=O)[C@@H]2CCCN2C(=O)[C@H](CCc2ccc(C(F)(F)F)c(Cl)c2)NC(=O)CN(C)C(=O)[C@@H]1Cc1ccc(C(F)(F)F)cc1` [PP0152] ([NMeL]I[NEtAla][Aze][NPrPhe(4-CF3)][Sar][hPhe(3-Cl-4-CF3)]P[Ac5c][NMeGly(cPent)][NMeD]-Morpholide; lactam N-11), for which the “NRAS/KRAS (ratio of KD for GDP-bound NRAS wild-type to KD for KRAS)” value in assay [1] (SPR) is “C (A compound having a KD ratio of 0.1 or more and less than 3 is denoted as C)”. In assay [2] (SPR), the “HRAS/KRAS (ratio of KD for GDP-bound HRAS wild-type to KD for KRAS)” value was “B (a compound having 3 or more and less than 10 is denoted as B)”.

As to `CCCN1C(=O)[C@@H]2CCN2C(=O)[C@H](C)N(C)C(=O)[C@H]([C@@H](C)CC)NC(=O)[C@H](CC(C)C)N(C)C(=O)C[C@@H](C(=O)N2CCOCC2)N(C)C(=O)[C@H](C2CCCC2)N(C)C(=O)C2(CCCC2)NC(=O)[C@@H]2CCCN2C(=O)[C@H](CCc2ccc(C(F)(F)F)c(Cl)c2)NC(=O)CN(C)C(=O)[C@@H]1Cc1ccc(C)cc1` [PP0052] ([NMeL]I[NMeA][Aze][NPrPhe(4-Me)][Sar][hPhe(3-Cl-4-CF3)]P[Ac5c][NMeGly(cPent)][NMeD]-Morpholide; lactam N-11), in assay [1] (SPR), the “NRAS/KRAS (ratio of KD for GDP-bound NRAS wild-type to KD for KRAS)” value is “C (A compound having a KD ratio of 0.1 or more and less than 3 is denoted as C)”. The “HRAS/KRAS (ratio of KD for GDP-bound HRAS wild-type to KD for KRAS)” value in assay [2] (SPR) is “B (a compound having 3 or more and less than 10 is denoted as B)”.

Consider `CCO[C@@H]1C[C@H]2C(=O)NC3(CC(C)(C)C3)C(=O)N(C)[C@@H](C(CC)CC)C(=O)N(C)[C@H](C(=O)N(C)C)CC(=O)N(C)[C@@H](C(C)C)C(=O)N[C@@H]([C@@H](C)CC)C(=O)N(C)CC(=O)N(C)[C@H]3C/C=C\CCN(C3=O)[C@@H](Cc3ccc(C)cc3)C(=O)N(C)CC(=O)N[C@@H](CCc3ccc(C(F)(F)F)c(OC)c3)C(=O)N2C1` [PP2173], for which the “NRAS/KRAS (ratio of KD value with respect to NRAS to KD value with respect to KRAS)” value in assay [1] (SPR, GDP-bound NRAS wild-type vs GDP-bound KRAS wild-type) is “A (a compound having 10 or more and less than 20 is denoted as A)”. In addition, the “HRAS/KRAS (ratio of KD value with respect to HRAS to KD value with respect to KRAS)” value in assay [2] (SPR, GDP-bound HRAS wild-type vs GDP-bound KRAS wild-type) is “A (a compound having 10 or more and less than 20 is denoted as A)”.

Consider `CCC[C@H]1C(=O)N[C@@H]([C@@H](C)CC)C(=O)N(C2CC2)CC(=O)N(C)[C@H]2C/C=C\CCN(C2=O)[C@@H](Cc2ccc(C)cc2)C(=O)N(C)CC(=O)N[C@@H](CCc2ccc(Cl)c(Cl)c2)C(=O)N2C[C@H](OCC)C[C@H]2C(=O)NC2(CC(C)(C)C2)C(=O)N(C)[C@@H](C(CC)CC)C(=O)N(C)[C@H](C(=O)N(C)C)CC(=O)N1C` [PP2561], for which the “NRAS/KRAS (ratio of KD value with respect to GDP-bound NRAS wild-type protein to KD value with respect to KRAS)” value in assay [1] (class symbols) is recorded as “AA (a compound having 20 or more is denoted as AA)”. The “HRAS/KRAS (ratio of KD value with respect to GDP-bound HRAS wild-type protein to KD value with respect to KRAS)” value in assay [2] (class symbols) was “A (a compound having 10 or more and less than 20 is denoted as A)”.
